Data on eight compounds can be found in PubChem BioAssay (NCI).

“And” between values parts separate entries of the source, which are not always exact repeats. Equal entries are not always repeated.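 Cultured in 96-well plates, cells were exposed to test compound for 48 hours across five concentrations. GI50 is the concentration that inhibits growth by half. TGI: total growth inhibition.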

Usually TGI stands for the concentration at which net growth stops. A high value points to lower sensitivity of the cells. Broadly, the GI50 is the concentration that inhibits growth by half.

Among the test systems are HOP-62 NSCLC; MALME-3M melanoma; A549 NSCLC; NCI/ADR-RES ovarian; SK-MEL-2 melanoma; MOLT-4 leukemia; MDA-MB-231 breast; CCRF-CEM leukemia; UO-31 renal; SF-539 CNS.
What all share (assay): DTP human tumour cell line panel, 48 h

As for `O=S(=O)(O)c1cc(O)c(N=Nc2ccc(O)cc2O)c2ccccc12`, the concentration for total growth inhibition (TGI) with HOP-62 NSCLC, in the test with MALME-3M melanoma, in the test on A549 NSCLC, in the test on NCI/ADR-RES ovarian, with SK-MEL-2 melanoma and with MOLT-4 leukemia was more than 100 µM in each case. In addition, the TGI in the test on MDA-MB-231 breast and with CCRF-CEM leukemia was more than 100 µM throughout.

In the case of `COc1cc(Nc2ncc(-c3ccccc3)o2)cc(OC)c1`, the GI50 in the test on HOP-62 NSCLC, with MALME-3M melanoma, with A549 NSCLC, with NCI/ADR-RES ovarian, in the test on SK-MEL-2 melanoma and in the test with UO-31 renal was more than 25 µM each time. Besides, the GI50 in the test with SF-539 CNS is more than 25 µM; with MOLT-4 leukemia, more than 18.7 µM; with MDA-MB-231 breast, more than 25 µM; in the test on CCRF-CEM leukemia, more than 25 µM. Also, the TGI in the test on HOP-62 NSCLC, in the test on MALME-3M melanoma, with A549 NSCLC, in the test on NCI/ADR-RES ovarian, in the test on SK-MEL-2 melanoma and in the test on UO-31 renal was more than 25 µM in each case. Further, the TGI in the test on SF-539 CNS, in the test with MOLT-4 leukemia, in the test with MDA-MB-231 breast and with CCRF-CEM leukemia was more than 25 µM throughout.

Regarding `COC(=O)[C@H](Cc1cnc[nH]1)NC(=O)[C@@H](NC(=O)Nc1cc(C(F)(F)F)cc(C(F)(F)F)c1)C(C)C`, the GI50 with HOP-62 NSCLC is 19 µM; in the test on MALME-3M melanoma, 16.9 µM; in the test on A549 NSCLC, 16.7 µM; with NCI/ADR-RES ovarian, 33.7 µM; with UO-31 renal, 15 µM; in the test on SF-539 CNS, 17 µM. Besides, the results for the GI50 with MOLT-4 leukemia, with MDA-MB-231 breast and in the test with CCRF-CEM leukemia were 12.5 µM, 12.4 µM and 14.7 µM, respectively. For the same compound, the TGI with HOP-62 NSCLC was 33.7 µM; in the test with MALME-3M melanoma it was 32.2 µM; with A549 NSCLC it was 32.7 µM; with NCI/ADR-RES ovarian it was more than 100 µM; in the test on UO-31 renal, 29.5 µM; with SF-539 CNS, 32.3 µM. Also, the total growth inhibition concentration (TGI) is 32.2 µM with MOLT-4 leukemia, 25.3 µM with MDA-MB-231 breast and 35.6 µM in the test with CCRF-CEM leukemia.

For the compound `CC1(C)CNc2cc(NC(=O)c3cccnc3NCc3ccncc3)ccc21`, the GI50 with HOP-62 NSCLC is 50.9 µM; with MALME-3M melanoma, 15.9 µM; in the test on A549 NSCLC, 31.9 µM; in the test on NCI/ADR-RES ovarian, 25.1 µM; in the test with SK-MEL-2 melanoma, 17.2 µM; in the test on UO-31 renal, 20 µM. The GI50 in the test on SF-539 CNS is 7.5 µM; in the test with MOLT-4 leukemia it was 23.8 µM; with MDA-MB-231 breast it was 29.2 µM; in the test on CCRF-CEM leukemia, 23.7 µM. For the same compound, the TGI in the test on HOP-62 NSCLC is more than 100 µM; in the test with MALME-3M melanoma, 84.9 µM; in the test with A549 NSCLC it was more than 100 µM; in the test on NCI/ADR-RES ovarian, more than 100 µM; with SK-MEL-2 melanoma, 47.8 µM; in the test on UO-31 renal, more than 100 µM. Moreover, the TGI in the test with SF-539 CNS is 58.9 µM; in the test with MOLT-4 leukemia, more than 100 µM; in the test with MDA-MB-231 breast, more than 100 µM; in the test on CCRF-CEM leukemia it was more than 100 µM.

Consider `COCc1c(-c2cc3cc(C)cc(OC)c3s2)c2c(N)ncnn2c1CN1CCNC(=O)C1`, for which the GI50 in the test with HOP-62 NSCLC is 2.6 µM; with MALME-3M melanoma it was 2.83 µM; in the test with A549 NSCLC, 3.2 µM; in the test on NCI/ADR-RES ovarian it was 24.3 µM; with SK-MEL-2 melanoma it was 2.83 µM; in the test with UO-31 renal, 1.76 µM. In addition, the GI50 in the test on SF-539 CNS is 2.31 µM; in the test with MOLT-4 leukemia it was 3.22 µM; with MDA-MB-231 breast, 6.11 µM; with CCRF-CEM leukemia, 3.42 µM. Also, the TGI is 15.9 µM with HOP-62 NSCLC; 17.3 µM with MALME-3M melanoma; 29.9 µM in the test on A549 NSCLC; more than 100 µM in the test on NCI/ADR-RES ovarian; 8.61 µM with SK-MEL-2 melanoma; 11.9 µM in the test with UO-31 renal. The TGI with SF-539 CNS stood at 14.4 µM; in the test on MOLT-4 leukemia, 48.5 µM; in the test on MDA-MB-231 breast it was 61.4 µM; with CCRF-CEM leukemia, 53.8 µM.

Regarding `COc1ccc(Cc2coc3ccccc3c2=O)cc1OC`, the TGI in the test on HOP-62 NSCLC, in the test with MALME-3M melanoma, in the test with A549 NSCLC, in the test on NCI/ADR-RES ovarian, in the test with SK-MEL-2 melanoma and with UO-31 renal was more than 100 µM in each case. Further, the TGI in the test on SF-539 CNS, in the test with MOLT-4 leukemia, in the test on MDA-MB-231 breast and in the test on CCRF-CEM leukemia was more than 100 µM each time.

In the case of `CC(C)(C)c1ccc(Oc2ccc(N)cn2)cc1`, the GI50 was more than 100 µM with HOP-62 NSCLC; 39.7 µM with MALME-3M melanoma; 9.19 µM in the test with A549 NSCLC; 51.6 µM in the test on NCI/ADR-RES ovarian; more than 100 µM with SK-MEL-2 melanoma; 1.75 µM in the test on UO-31 renal. Also, the GI50 is 18.8 µM in the test on SF-539 CNS, 3.96 µM in the test with MOLT-4 leukemia, 31.7 µM with MDA-MB-231 breast and 1.06 µM in the test on CCRF-CEM leukemia. Moreover, the TGI with HOP-62 NSCLC, in the test on MALME-3M melanoma, with A549 NSCLC, in the test on NCI/ADR-RES ovarian, with SK-MEL-2 melanoma and with UO-31 renal was more than 100 µM in each case. The TGI with SF-539 CNS, in the test with MOLT-4 leukemia, with MDA-MB-231 breast and in the test on CCRF-CEM leukemia was more than 100 µM in each case.

With `CNC(=O)c1cc(Oc2ccc(NC(=O)Nc3ccc(Cl)c(C(F)(F)F)c3)c(F)c2)ccn1`, the GI50 with HOP-62 NSCLC was 2.83 µM and 2.33 µM; in the test on MALME-3M melanoma, 0.76 µM and 1.95 µM; in the test with A549 NSCLC it was 2.39 µM and 2.64 µM; with NCI/ADR-RES ovarian, 2.67 µM and 2.44 µM; with SK-MEL-2 melanoma, 0.664 µM and 0.336 µM; in the test on UO-31 renal, 1.53 µM and 1.82 µM. The GI50 in the test on SF-539 CNS was 2.15 µM and 1.45 µM; in the test with MOLT-4 leukemia it was 2.21 µM and 1.91 µM; in the test on MDA-MB-231 breast, 1.22 µM and 1.26 µM; with CCRF-CEM leukemia, 2.24 µM and 2.51 µM. Also, the TGI in the test on HOP-62 NSCLC was 14.5 µM and > 10 µM; in the test with MALME-3M melanoma, 5.87 µM and > 10 µM; in the test on A549 NSCLC it was more than 24.1 µM; with NCI/ADR-RES ovarian, 9.81 µM and > 10 µM; in the test with SK-MEL-2 melanoma it was 2.13 µM and 1.86 µM; with UO-31 renal it was 4.22 µM and > 10 µM. For the same compound, the TGI was 10.7 µM and > 10 µM with SF-539 CNS; 5.75 µM and 6.59 µM in the test with MOLT-4 leukemia; 4.44 µM and 4.92 µM in the test with MDA-MB-231 breast; 7.01 µM and 8.88 µM with CCRF-CEM leukemia.
